Measured values as given in US8420679B2, “Aminothiazole derivatives and their use as CRF receptor ligands” (Sanofi, priority 1999, dated 2013).
Counter-ions that a name gives are not always drawn.

| SMILES | melting point [°C] |
| --- | --- |
| C=CCN(c1nc(-c2ccc(OC)cc2Cl)c(C)s1)C(COC)c1ccccc1 (centres unmarked) (as salt: hydrochloride) (hydrate or solvate) [Example 23, Allyl-[4-(2-chloro-4-methoxyphenyl)-5-methylthiazol-2-yl]-(2-methoxy-1-phenylethyl)amine] | 70 |
| CC#CCN(c1nc(-c2ccc(OC)cc2Cl)c(C)s1)C(COC)c1ccccc1 (centres unmarked) (as salt: hydrochloride) (hydrate or solvate) [Example 24, But-2-ynyl-[4-(2-chloro-4-methoxyphenyl)-5-methylthiazol-2-yl]-[2-methoxy-1-phenylethyl]amine] | 70 |
